Data set [1] relates to Puccinia recondita f. sp. tritici. As to the kind of experiment: Puccinia recondita f. sp. tritici / wheat / leaf disc preventative (brown rust). It counts as in vivo. The note with it: foliar, wheat leaf segments cv. Kanzler, preventative (inoculated 1 day after application), compared to untreated control. As for the experimental part: Leaf disks or leaf segments of various plant species are cut from plants grown in a greenhouse. The cut leaf disks or segments are placed in multiwell plates (24-well format) onto water agar. The leaf disks are sprayed with a test solution before (preventative) or after (curative) inoculation. Compounds to be tested are prepared as DMSO solutions (max. 10 mg/ml) which are diluted to the appropriate concentration with 0.025% Tween20 just before spraying. The inoculated leaf disks or segments are incubated under defined conditions (temperature, relative humidity, light, etc.) according to the respective test system. A single evaluation of disease level is carried out 3 to 14 days after inoculation, depending on the pathosystem. Percent disease control relative to the untreated check leaf disks or segments is then calculated. Wheat leaf segments cv. Kanzler are placed on agar in multiwell plates (24-well format) and sprayed with the formulated test compound diluted in water. The leaf disks are inoculated with a spore suspension of the fungus 1 day after application. The inoculated leaf segments are incubated at 19° C. and 75% rh under a light regime of 12 h light/12 h darkness in a climate cabinet and the activity of a compound is assessed as percent disease control compared to untreated when an appropriate level of disease damage appears in untreated check leaf segments (7-9 days after application).

For data set [2] the test system is unchanged. As to the kind of experiment: Puccinia recondita f. sp. tritici / wheat / leaf disc curative (brown rust). It counts as in vivo. The note with it: foliar, 24 h, wheat leaf segments cv. Kanzler, curative (applied 1 day after inoculation), compared to untreated control, read-out: control of Puccinia recondita f. sp. tritic. On the procedure: Leaf disks or leaf segments of various plant species are cut from plants grown in a greenhouse. The cut leaf disks or segments are placed in multiwell plates (24-well format) onto water agar. The leaf disks are sprayed with a test solution before (preventative) or after (curative) inoculation. Compounds to be tested are prepared as DMSO solutions (max. 10 mg/ml) which are diluted to the appropriate concentration with 0.025% Tween20 just before spraying. The inoculated leaf disks or segments are incubated under defined conditions (temperature, relative humidity, light, etc.) according to the respective test system. A single evaluation of disease level is carried out 3 to 14 days after inoculation, depending on the pathosystem. Percent disease control relative to the untreated check leaf disks or segments is then calculated. Wheat leaf segments cv. Kanzler are placed on agar in multiwell plates (24-well format). The leaf segments are inoculated with a spore suspension of the fungus. Plates are stored in darkness at 19° C., and 75% rh. The formulated test compound diluted in water is applied 1 day after inoculation. The leaf segments are incubated at 19° C., and 75% rh under a light regime of 12 h light/12 h darkness in a climate cabinet and the activity of a compound is assessed as percent disease control compared to untreated when an appropriate level of disease damage appears in untreated check leaf segments (6-8 days after application).

A further data set relates to Phakopsora pachyrhizi. As to the kind of experiment: Phakopsora pachyrhizi / soybean / leaf disc preventative (Asian soybean rust). The data set is classed as in vivo. The note with it: foliar, soybean leaf disks, compared to untreated control. As for the experimental part:
Leaf disks or leaf segments of various plant species are cut from plants grown in a greenhouse. The cut leaf disks or segments are placed in multiwell plates (24-well format) onto water agar. The leaf disks are sprayed with a test solution before (preventative) or after (curative) inoculation. Compounds to be tested are prepared as DMSO solutions (max. 10 mg/ml) which are diluted to the appropriate concentration with 0.025% Tween20 just before spraying. The inoculated leaf disks or segments are incubated under defined conditions (temperature, relative humidity, light, etc.) according to the respective test system. A single evaluation of disease level is carried out 3 to 14 days after inoculation, depending on the pathosystem. Percent disease control relative to the untreated check leaf disks or segments is then calculated. Soybean leaf disks are placed on water agar in multiwell plates (24-well format) and sprayed with the formulated test compound diluted in water. One day after application leaf discs are inoculated by spraying a spore suspension on the lower leaf surface. After an incubation period in a climate cabinet of 24-36 hours in darkness at 20° C., and 75% rh leaf disc are kept at 20° C. with 12 h light/day and 75% rh. The activity of a compound is assessed as percent disease control compared to untreated when an appropriate level of disease damage appears in untreated check leaf disks (12-14 days after application).

In data set [3] the test system is Glomerella lagenarium (Colletotrichum lagenarium). As to the kind of experiment: Glomerella lagenarium (Colletotrichum lagenarium) liquid culture / cucumber / preventative (anthracnose). It counts as cell-based. The note with it: Colletotrichum orbiculare, liquid culture (PDB), growth inhibition measured photometrically 3-4 days after application, compared to untreated control. As for the experimental part:
[…] fragments or conidia suspensions of a fungus prepared either freshly from liquid cultures of the fungus or from cryogenic storage, are directly mixed into nutrient broth. DMSO solutions of the test compound (max. 10 mg/ml) are diluted with 0.025% Tween20 by a factor of 50 and 10 μl of this solution is pipetted into a microtiter plate (96-well format). The nutrient broth containing the fungal spores/mycelia fragments is then added to give an end concentration of the tested compound. The test plates are incubated in the dark at 24° C., and 96% relative humidity. The inhibition of fungal growth is determined photometrically after 2 to 7 days, depending on the pathosystem, and percent antifungal activity relative to the untreated check is calculated. Conidia of the fungus from cryogenic storage are directly mixed into nutrient broth (PDB potato dextrose broth). Alter placing a (DMSO) solution of test compound into a microtiter plate (96-well format), the nutrient broth containing the fungal spores is added. The test plates are incubated at 24° C., and the inhibition of growth is measured photometrically 3-4 days after application.

`O=C(NN1CCCCC1=O)c1ccc(-c2noc(C(F)(F)F)n2)cc1F` [Compound 1.23, 2-fluoro-N-(2-oxo-1-piperidyl)-4-[5-(trifluoromethyl)-1,2,4-oxadiazol-3-yl]benzamide] had a melting point of 120 to 136 °C. The same compound showed a pest or weed control at 200 ppm in data set [1] not below 80%. Also, the pest or weed control at 200 ppm in data set [2] was not below 80%. In the data set on Phakopsora pachyrhizi, this compound showed a pest or weed control at 200 ppm not below 80%. In addition, in data set [3], the inhibition of growth at 20 ppm was not below 80%.

`O=C(NN1CCCCC1=O)c1ccc(-c2noc(C(F)(F)F)n2)c(F)c1` [Compound 1.24, 3-fluoro-N-(2-oxo-1-piperidyl)-4-[5-(trifluoromethyl)-1,2,4-oxadiazol-3-yl]benzamide] yielded a melting point of 180 to 200 °C. The compound also yielded a pest or weed control at 200 ppm in data set [1] not below 80%. In addition, in data set [2], the pest or weed control at 200 ppm is not below 80%. This compound also displayed a pest or weed control at 200 ppm in the data set with Phakopsora pachyrhizi not below 80%. The same compound had an inhibition of growth at 20 ppm in data set [3] not below 80%.

In the case of `CN(C)NC(=O)Cc1ccc(-c2noc(C(F)(F)F)n2)cc1F` [Compound 1.26, 2-[2-fluoro-4-[5-(trifluoromethyl)-1,2,4-oxadiazol-3-yl]phenyl]-N′,N′-dimethyl-acetohydrazide], the melting point lay in the range of 156 to 158 °C. The same compound came in with a pest or weed control at 200 ppm in data set [1] not below 80%. In data set [2], the pest or weed control at 200 ppm is not below 80%. The same compound returned a pest or weed control at 200 ppm in the data set with Phakopsora pachyrhizi not below 80%. In data set [3], this compound yielded an inhibition of growth at 20 ppm not below 80%.

`CN(C)NC(=O)Cc1ccc(-c2noc(C(F)(F)F)n2)cc1` [Compound 1.27, N′,N′-dimethyl-2-[4-[5-(trifluoromethyl)-1,2,4-oxadiazol-3-yl]phenyl]-acetohydrazide]: the melting point was 180 to 182 °C. Further, the pest or weed control at 200 ppm in data set [1] is not below 80%. Also, the pest or weed control at 200 ppm in data set [2] was not below 80%. The pest or weed control at 200 ppm with Phakopsora pachyrhizi was not below 80%. The inhibition of growth at 20 ppm in data set [3] was not below 80%.

The values above are taken from patent US20190292174A1, “MICROBIOCIDAL OXADIAZOLE DERIVATIVES” (SYNGENTA PARTICIPATIONS AG, priority 2016, published 2019).
